From ChEMBL document CHEMBL1201862, “PubChem BioAssay data set” (2004) come the findings set out here.

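Five compound concentrations were applied to cells in 96-well plates for 48 hours; endpoints were derived by simple linear interpolation of the resulting dose-response curve. Abbreviation: GI50, concentration required for 50% inhibition of growth.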 The source made the active and inactive calls. Cut-off read from the data, not from the text of the source: active = GI50 up to about 1.1 µM and inactive = higher.

Among the test systems are HOP-92; TK-10; MOLT-4; IGROV-1; SF-268; HT-29; MDA-N; OVCAR-3; UACC-62; SF-295; SNB-19; SK-MEL-28; HCC 2998; K562; ACHN; HCT-15; Hs-578T; NCI/ADR-RES; SR; SN12C.
What all share (experiment): DTP human tumour cell line panel, 48 h

Usually GI50 stands for the concentration at which growth is held to half of that of the control. With `Cc1cc(=O)oc2cc(OCC(O)COC(C)C)ccc12` (configuration not stated), the GI50 in the assay on HOP-92 is 80.9 µM (inactive); in the assay on TK-10 it was > 100 µM (inactive); with MOLT-4, > 100 µM (inactive); in the assay with IGROV-1, > 100 µM (inactive); with SF-268, > 100 µM (inactive); with HT-29, > 100 µM (inactive). In addition, the GI50 in the assay on MDA-N was 91.4 µM (inactive); in the assay with OVCAR-3, > 100 µM (inactive); with UACC-62, > 100 µM (inactive); in the assay on SF-295, > 100 µM (inactive); in the assay with SNB-19 it was > 100 µM (inactive); in the assay on SK-MEL-28, > 100 µM (inactive). For the same compound, the GI50 in the assay with HCC 2998 was > 100 µM (inactive); in the assay on K562, > 100 µM (inactive); in the assay on ACHN it was > 100 µM (inactive); in the assay with HCT-15 it was more than 100 µM; in the assay with Hs-578T, 97.1 µM (inactive); in the assay on NCI/ADR-RES, > 100 µM (inactive). The GI50 in the assay on SR and with SN12C was > 100 µM (inactive) throughout.

As for `CC(=O)O[C@H]1CC[C@H]2[C@@H]3CC[C@H]4Nc5c(cnn5S(C)(=O)=O)C[C@]4(C)[C@H]3CC[C@]12C`, the GI50 was 98.9 µM (inactive) in the assay on HOP-92; 47.9 µM (inactive) in the assay on MOLT-4; > 100 µM (inactive) in the assay on IGROV-1; 48.5 µM (inactive) in the assay on HT-29; > 100 µM (inactive) in the assay on MDA-N; 27.5 µM (inactive) in the assay on OVCAR-3. For the same compound, the GI50 in the assay on UACC-62 was 33.7 µM (inactive); with SF-295, 46.8 µM (inactive); in the assay on SNB-19, 36.7 µM (inactive); in the assay with SK-MEL-28, 48.2 µM (inactive); in the assay with HCC 2998, 56.4 µM (inactive); with K562, 62.7 µM (inactive). In addition, the 50% growth inhibitory concentration (GI50) was more than 100 µM in the assay with HCT-15; 45.6 µM (inactive) with Hs-578T; 87.1 µM (inactive) with NCI/ADR-RES; > 100 µM (inactive) with SR; > 100 µM (inactive) in the assay with SN12C.

On to `SC1=NC2=C(CSC/C2=C\c2cccc(Br)c2)C(c2cccc(Br)c2)N1` (configuration not stated), for which the GI50 in the assay on TK-10 is > 100 µM (inactive); in the assay on MOLT-4 it was 38.7 µM (inactive); in the assay on IGROV-1, > 100 µM (inactive); in the assay on SF-268, > 100 µM (inactive); with HT-29, 42.3 µM (inactive); in the assay on MDA-N, 68.2 µM (inactive). The GI50 in the assay on OVCAR-3, with UACC-62, in the assay on SF-295, in the assay with SNB-19, in the assay with SK-MEL-28 and with HCC 2998 was > 100 µM (inactive) throughout. Moreover, the GI50 with K562 was 45.7 µM (inactive); with ACHN, > 100 µM (inactive); in the assay with HCT-15 it was more than 100 µM; with Hs-578T it was > 100 µM (inactive); in the assay on NCI/ADR-RES, 61.9 µM (inactive); in the assay on SN12C it was > 100 µM (inactive).

Take `CC(C)C(/C=C/c1ccc(Cl)cc1)=N\NC(=O)N/N=C(/C=C/c1ccc(Cl)cc1)C(C)C`: the GI50 with HOP-92 was 21.7 µM (inactive); in the assay with TK-10 it was 25.3 µM (inactive); in the assay with MOLT-4, 48.8 µM (inactive); in the assay on IGROV-1, 28.8 µM (inactive); in the assay with SF-268, 20 µM (inactive); with HT-29 it was 42.3 µM (inactive). The GI50 in the assay on MDA-N was 36.6 µM (inactive); in the assay on OVCAR-3 it was 19.6 µM (inactive); in the assay with UACC-62, 35.5 µM (inactive); with SF-295 it was 22.9 µM (inactive); with SNB-19 it was 19.8 µM (inactive); in the assay with SK-MEL-28, 50.9 µM (inactive). The GI50 is 83.4 µM (inactive) with HCC 2998; 47.8 µM (inactive) with K562; 29.2 µM (inactive) in the assay on ACHN; 71.4 µM with HCT-15; 20.1 µM (inactive) in the assay with Hs-578T; 26.7 µM (inactive) in the assay on NCI/ADR-RES. Also, the GI50 is 30.8 µM (inactive) with SR and 18.4 µM (inactive) in the assay with SN12C.

In the case of `O=S1(=O)C[C@@H](NCc2ccccc2)[C@H](NCc2ccccc2)C1`, the GI50 with HOP-92 is > 100 µM (inactive); in the assay on TK-10, > 100 µM (inactive); in the assay with MOLT-4, > 100 µM (inactive); in the assay with IGROV-1, 26.2 µM (inactive); in the assay on SF-268 it was > 100 µM (inactive); with HT-29, > 100 µM (inactive). Further, the GI50 in the assay on MDA-N, in the assay on OVCAR-3, with UACC-62, with SF-295, with SNB-19 and in the assay on SK-MEL-28 was > 100 µM (inactive) throughout. Moreover, the GI50 with HCC 2998, in the assay on K562, in the assay on ACHN, with Hs-578T, in the assay with NCI/ADR-RES and in the assay on SR was > 100 µM (inactive) in each case. The GI50 in the assay on SN12C was > 100 µM (inactive).

In the case of `CCOC(=O)C(=NN(C)c1ncccc1N)C(=O)OCC`, the GI50 with HOP-92 was 23.3 µM (inactive); in the assay with TK-10, 79.3 µM (inactive); in the assay on MOLT-4, 21.5 µM (inactive); in the assay on IGROV-1, 61 µM (inactive); in the assay with SF-268, > 100 µM (inactive); in the assay with HT-29, 65.6 µM (inactive). Also, the GI50 is 34.8 µM (inactive) in the assay on MDA-N; 30.7 µM (inactive) in the assay on OVCAR-3; > 100 µM (inactive) with UACC-62; > 100 µM (inactive) in the assay on SF-295; > 100 µM (inactive) with SNB-19; > 100 µM (inactive) with SK-MEL-28. The GI50 with K562 was 25.4 µM (inactive); with HCT-15, 32.9 µM; in the assay with Hs-578T, > 100 µM (inactive); in the assay with NCI/ADR-RES, 53.3 µM (inactive); in the assay on SR it was 36.2 µM (inactive); with SN12C it was 24.7 µM (inactive).

`Cc1ccc(C)c(NC(=O)/C(=N\N)C(c2cnc3ccc([N+](=O)[O-])cc3n2)[N+](=O)[O-])c1` (configuration not stated): the GI50 in the assay on HOP-92 is > 100 µM (inactive); in the assay with TK-10, > 100 µM (inactive); with MOLT-4, 54.5 µM (inactive); with IGROV-1, 51.9 µM (inactive); in the assay on SF-268, 93.5 µM (inactive); in the assay on HT-29 it was 65.8 µM (inactive). The GI50 was > 100 µM (inactive) with MDA-N; 61.1 µM (inactive) in the assay on OVCAR-3; > 100 µM (inactive) in the assay on UACC-62; > 100 µM (inactive) in the assay with SF-295; > 100 µM (inactive) in the assay with SK-MEL-28; 69.8 µM (inactive) in the assay with HCC 2998. Besides, the GI50 in the assay on K562 is > 100 µM (inactive); with ACHN, 14.5 µM (inactive); with HCT-15, more than 100 µM; in the assay on Hs-578T, 80.4 µM (inactive); with NCI/ADR-RES it was 32.2 µM (inactive); with SR it was 74.1 µM (inactive). In addition, the GI50 in the assay with SN12C was > 100 µM (inactive).

As for `CCOC(=O)N1CCN(c2ccc3c(C)cc(C)nc3n2)CC1`, the GI50 in the assay on HOP-92, in the assay on TK-10, in the assay with MOLT-4, with IGROV-1, in the assay on SF-268 and in the assay on HT-29 was > 100 µM (inactive) throughout. For the same compound, the GI50 in the assay with MDA-N, in the assay with OVCAR-3, in the assay on UACC-62, in the assay on SF-295, in the assay with SNB-19 and in the assay on SK-MEL-28 was > 100 µM (inactive) in each case. In addition, the GI50 in the assay with HCC 2998 is > 100 µM (inactive); with K562, > 100 µM (inactive); with ACHN it was > 100 µM (inactive); in the assay on HCT-15 it was more than 100 µM; in the assay on Hs-578T, > 100 µM (inactive); with NCI/ADR-RES, > 100 µM (inactive). Moreover, the GI50 with SR and in the assay on SN12C was > 100 µM (inactive) each time.

Consider `CC/C=C/C(CC)C/C(C)=C\[C@]1(CC)C[C@H](CC)[C@H](CC(=O)O)OO1` (some centres not stated), for which the GI50 is 0.151 µM (active) with MOLT-4; 0.0612 µM (active) in the assay on IGROV-1; 1.39 µM (inactive) in the assay on SF-268; 0.499 µM (active) in the assay with HT-29; 1.36 µM (inactive) in the assay with MDA-N; 1.15 µM (inactive) with OVCAR-3. Moreover, the GI50 in the assay on UACC-62 was 1.66 µM (inactive); in the assay on SF-295, 0.324 µM (active); in the assay with SNB-19, 1.82 µM (inactive); in the assay with K562 it was 0.355 µM (active); in the assay on ACHN it was 0.265 µM (active); in the assay with HCT-15, 0.416 µM. The GI50 with Hs-578T is 2.26 µM (inactive); in the assay with NCI/ADR-RES it was 0.453 µM (active); with SR it was 0.114 µM (active); in the assay on SN12C it was 1.59 µM (inactive).
